PubChem BioAssay AID1963838 (Molecular Pharmacology Branch, DTP, NCI, 2024)

System: 855422-203-R-J1-PDC complex spheroid viability
Assay: Anticancer human tumor 855422-203-R-J1-PDC patient-derived bladder carcinoma cell line growth inhibition [POLQ]
Settings: for IC50: curve of first compound; for viability, T/C: stronger effect = lower value
How it was run: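 Three-cell-type spheroids modelling solid tumor plus stroma served as the readout system; POL inhibitors were tested individually and in combination, concentration ranges set by clinical Cmax where known.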
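Also: spheroids exposed to compounds for seven days before readout.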

C=CCn1c(=O)c2cnc(Nc3ccc(N4CCN(C)CC4)cc3)nc2n1-c1cccc(C(C)(C)O)n1 + COC1C(OC(N)=O)C(O)C(Oc2ccc3c(O)c(NC(=O)c4ccc(O)c(CC=C(C)C)c4)c(=O)oc3c2C)OC1(C)C
IC50 (second compound 0.0316 µM): > 1 µM | IC50 (second compound 0.1 µM): > 1 µM | IC50 (second compound 0.316 µM): > 1 µM | IC50 (second compound 1 µM): > 1 µM | IC50 (second compound 3.16 µM): > 1 µM | IC50 (second compound 10 µM): > 1 µM | viability, T/C (second compound 0.0316 µM, first compound 0.00316 µM): 90.6% | viability, T/C (second compound 0.0316 µM, first compound 0.01 µM): 93.2% | viability, T/C (second compound 0.0316 µM, first compound 0.0316 µM): 96.4% | viability, T/C (second compound 0.0316 µM, first compound 0.1 µM): 94.5% | viability, T/C (second compound 0.0316 µM, first compound 0.316 µM): 92.1% | viability, T/C (second compound 0.0316 µM, first compound 1 µM): 101% | viability, T/C (second compound 0.1 µM, first compound 0.00316 µM): 95.9% | viability, T/C (second compound 0.1 µM, first compound 0.01 µM): 94.3% | viability, T/C (second compound 0.1 µM, first compound 0.0316 µM): 91.9% | viability, T/C (second compound 0.1 µM, first compound 0.1 µM): 107% | viability, T/C (second compound 0.1 µM, first compound 0.316 µM): 105% | viability, T/C (second compound 0.1 µM, first compound 1 µM): 99.7% | viability, T/C (second compound 0.316 µM, first compound 0.00316 µM): 98.7% | viability, T/C (second compound 0.316 µM, first compound 0.01 µM): 103% | viability, T/C (second compound 0.316 µM, first compound 0.0316 µM): 95.9% | viability, T/C (second compound 0.316 µM, first compound 0.1 µM): 106% | viability, T/C (second compound 0.316 µM, first compound 0.316 µM): 109% | viability, T/C (second compound 0.316 µM, first compound 1 µM): 103% | viability, T/C (second compound 1 µM, first compound 0.00316 µM): 91.5% | viability, T/C (second compound 1 µM, first compound 0.01 µM): 110% | viability, T/C (second compound 1 µM, first compound 0.0316 µM): 102% | viability, T/C (second compound 1 µM, first compound 0.1 µM): 98.9% | viability, T/C (second compound 1 µM, first compound 0.316 µM): 103% | viability, T/C (second compound 1 µM, first compound 1 µM): 93.1% | viability, T/C (second compound 3.16 µM, first compound 0.00316 µM): 107% | viability, T/C (second compound 3.16 µM, first compound 0.01 µM): 95.4% | viability, T/C (second compound 3.16 µM, first compound 0.0316 µM): 94.1% | viability, T/C (second compound 3.16 µM, first compound 0.1 µM): 102% | viability, T/C (second compound 3.16 µM, first compound 0.316 µM): 113% | viability, T/C (second compound 3.16 µM, first compound 1 µM): 91.9% | viability, T/C (second compound 10 µM, first compound 0.00316 µM): 105% | viability, T/C (second compound 10 µM, first compound 0.01 µM): 104% | viability, T/C (second compound 10 µM, first compound 0.0316 µM): 101% | viability, T/C (second compound 10 µM, first compound 0.1 µM): 96% | viability, T/C (second compound 10 µM, first compound 0.316 µM): 94.2% | viability, T/C (second compound 10 µM, first compound 1 µM): 90%
